This passage reports Dmax and DC50 results from patent US20250114356A1, “INDAZOLE BASED COMPOUNDS AND ASSOCIATED METHODS OF USE” (Arvinas Operations, Inc., priority 2020, published 2025).

One assay concerns the target T1, wildtype LRRK2 (Homo sapiens, UniProt Q5S007).
T1 construct: expressed in transfected cells; host or cells: HEK293 (ATCC CRL-1573), transient transfection, ubiquitin promoter
Kind of assay: LRRK2 degradation assay, wildtype LRRK2-HiBit expressed from plasmid in HEK293 cells. It is filed as cell-based. The following applies: HEK293 cells transfected with HiBit-tagged wildtype LRRK2, 24 hours compound incubation; for Dmax: read-out: **WT Dmax (%); for DC50: read-out: *WT DC50. The method, then: (§1) The assay measures the degradation of wildtype and G2019S LRRK2 tagged with a HiBit tag on the C-terminus of the protein that was expressed from a mammalian expression vector, driven by the ubiquitin promoter in HEK293 cells. Each compound dose-response was repeated on two separate days, on three separate plates each day.
(§2) Plasmid Preparation. Transfection mixes were assembled as follows and incubated for 30 minutes at room temperature. In a 15 mL tube, 5.25 mL Opti-MEM (no additions) was mixed with 17 μL Firefly Luciferase plasmid at 1 μg/μL and 158 μL WT plasmid DNA at 1 μg/μL (175 μg total DNA) were mixed by flicking. In a new 15 mL tube, 5.25 mL OptiMEM was mixed with 17 μL Firefly Luciferase plasmid at 1 μg/μL and 158 μL G2019S plasmid DNA at 1 μg/μL (175 μg total DNA) were mixed by flicking. X-tremeGene HP was mixed thoroughly using a vortex. Next, 175 μL was added to each tube and flicked to mix. Both tubes were left to incubate for 30 minutes at room temperature.
(§3) While the transfection mixes were incubating, HEK293 cells (acquired from ATCC; ATCC CRL-1573) were harvested with trypsin. Once cells are detached, the cells were resuspended in 12 mL OptiMEM+5% FBS and transferred to a 50 mL tube. The cells were mixed well and counted. Using OptiMEM+5% FBS, the cells were diluted in two 250 mL conical tubes at 0.71×10^6 cells/mL in 70 mL. One tube was labeled “WT” and the other “G2019S”. The WT and G2019S transfection mixes were added dropwise to the corresponding 250 mL tubes. The tubes were mixed first by pipetting then by swirling. The tubes were incubated at room temperature for at least 5 minutes.
(§4) Each tube was swirled before dispensing and after every three plates. Seventy microliters of cells were dispensed with WT or G2019S DNA to seven plates each. Three plates of each were tested with compound plate one (preparation described below) and three plates of each were tested with compound plate two (preparation described below). The first plate from each set served as a “prime” plate and was not used to test compounds. Each plate was incubated in the hood for 10 minutes before placing in the 37° C. incubator for 24 hours.
(§5) Preparation of Compound and Assay Plates. Two compound plates were made using 96 well polypropylene plates. Compounds were made up at 10 mM and were diluted to 1 mM in 30 μL. Each dose response curve included a well of DMSO, as a negative control and for normalization, and a well of 0.5 μM of Exemplary Compound 4 as a positive control. In addition to seven test compounds, each plate also included a dose response of Exemplary Compound 4. The compound plates were spun down along at 1200 rpm for 2 minutes.
(§6) The two compound plates were then mixed and 2 μL was diluted in intermediate plates having 248 μL of Opti-Mem in each well. Next, 10 μL diluted compounds from the intermediate plates were added to each test plate (three WT and three G2019S plates per compound plate for a total of 12 assay plates). The plates were incubated for 24 hours at 37° C.
(§7) All assay plates and all Nano-Glo Dual-Luciferase Reporter Assay System components (except for the DLR substrate) were equilibrated to room temperature. Next, the luciferase buffer was mixed with the lyophilized amber bottle until fully dissolved, and 75 μL of the luciferase mixture was added to each well of each assay plate. The assay plates were incubated for 10 minutes at room temperature with shaking for at least 5 minutes, and then read on a plate reader.
(§8) Developing Plates and Analyzing Data. One milliliter of DLR substrate and 1 mL LgBiT Protein were added to the Stop and Glo buffer, and 75 μL of the mixture was added to each well of each plate. Optically clear seals were added to each plate and each plate was incubated for 20 minutes with shaking for at least 10 minutes, and then read on a plate reader. […]
(With HiBiT, luminescence reflects the tagged protein that the partner subunit can reach.)

Another assay concerns the target T2, G2019S LRRK2 (Homo sapiens, UniProt Q5S007, G2019S).
T2 construct: expressed in transfected cells; host or cells: HEK293 (ATCC CRL-1573), transient transfection, ubiquitin promoter
The assay can be described thus: LRRK2 degradation assay, G2019S LRRK2-HiBit expressed from plasmid in HEK293 cells. The following applies: HEK293 cells transfected with HiBit-tagged G2019S LRRK2, 24 hours compound incubation. It is filed as cell-based. The method, then: as §1, §2, §3, §4, §5, §6, §7, §8

Molecules are shown by their SMILES.

T2 sequence (Q5S007 whole entry G2019S): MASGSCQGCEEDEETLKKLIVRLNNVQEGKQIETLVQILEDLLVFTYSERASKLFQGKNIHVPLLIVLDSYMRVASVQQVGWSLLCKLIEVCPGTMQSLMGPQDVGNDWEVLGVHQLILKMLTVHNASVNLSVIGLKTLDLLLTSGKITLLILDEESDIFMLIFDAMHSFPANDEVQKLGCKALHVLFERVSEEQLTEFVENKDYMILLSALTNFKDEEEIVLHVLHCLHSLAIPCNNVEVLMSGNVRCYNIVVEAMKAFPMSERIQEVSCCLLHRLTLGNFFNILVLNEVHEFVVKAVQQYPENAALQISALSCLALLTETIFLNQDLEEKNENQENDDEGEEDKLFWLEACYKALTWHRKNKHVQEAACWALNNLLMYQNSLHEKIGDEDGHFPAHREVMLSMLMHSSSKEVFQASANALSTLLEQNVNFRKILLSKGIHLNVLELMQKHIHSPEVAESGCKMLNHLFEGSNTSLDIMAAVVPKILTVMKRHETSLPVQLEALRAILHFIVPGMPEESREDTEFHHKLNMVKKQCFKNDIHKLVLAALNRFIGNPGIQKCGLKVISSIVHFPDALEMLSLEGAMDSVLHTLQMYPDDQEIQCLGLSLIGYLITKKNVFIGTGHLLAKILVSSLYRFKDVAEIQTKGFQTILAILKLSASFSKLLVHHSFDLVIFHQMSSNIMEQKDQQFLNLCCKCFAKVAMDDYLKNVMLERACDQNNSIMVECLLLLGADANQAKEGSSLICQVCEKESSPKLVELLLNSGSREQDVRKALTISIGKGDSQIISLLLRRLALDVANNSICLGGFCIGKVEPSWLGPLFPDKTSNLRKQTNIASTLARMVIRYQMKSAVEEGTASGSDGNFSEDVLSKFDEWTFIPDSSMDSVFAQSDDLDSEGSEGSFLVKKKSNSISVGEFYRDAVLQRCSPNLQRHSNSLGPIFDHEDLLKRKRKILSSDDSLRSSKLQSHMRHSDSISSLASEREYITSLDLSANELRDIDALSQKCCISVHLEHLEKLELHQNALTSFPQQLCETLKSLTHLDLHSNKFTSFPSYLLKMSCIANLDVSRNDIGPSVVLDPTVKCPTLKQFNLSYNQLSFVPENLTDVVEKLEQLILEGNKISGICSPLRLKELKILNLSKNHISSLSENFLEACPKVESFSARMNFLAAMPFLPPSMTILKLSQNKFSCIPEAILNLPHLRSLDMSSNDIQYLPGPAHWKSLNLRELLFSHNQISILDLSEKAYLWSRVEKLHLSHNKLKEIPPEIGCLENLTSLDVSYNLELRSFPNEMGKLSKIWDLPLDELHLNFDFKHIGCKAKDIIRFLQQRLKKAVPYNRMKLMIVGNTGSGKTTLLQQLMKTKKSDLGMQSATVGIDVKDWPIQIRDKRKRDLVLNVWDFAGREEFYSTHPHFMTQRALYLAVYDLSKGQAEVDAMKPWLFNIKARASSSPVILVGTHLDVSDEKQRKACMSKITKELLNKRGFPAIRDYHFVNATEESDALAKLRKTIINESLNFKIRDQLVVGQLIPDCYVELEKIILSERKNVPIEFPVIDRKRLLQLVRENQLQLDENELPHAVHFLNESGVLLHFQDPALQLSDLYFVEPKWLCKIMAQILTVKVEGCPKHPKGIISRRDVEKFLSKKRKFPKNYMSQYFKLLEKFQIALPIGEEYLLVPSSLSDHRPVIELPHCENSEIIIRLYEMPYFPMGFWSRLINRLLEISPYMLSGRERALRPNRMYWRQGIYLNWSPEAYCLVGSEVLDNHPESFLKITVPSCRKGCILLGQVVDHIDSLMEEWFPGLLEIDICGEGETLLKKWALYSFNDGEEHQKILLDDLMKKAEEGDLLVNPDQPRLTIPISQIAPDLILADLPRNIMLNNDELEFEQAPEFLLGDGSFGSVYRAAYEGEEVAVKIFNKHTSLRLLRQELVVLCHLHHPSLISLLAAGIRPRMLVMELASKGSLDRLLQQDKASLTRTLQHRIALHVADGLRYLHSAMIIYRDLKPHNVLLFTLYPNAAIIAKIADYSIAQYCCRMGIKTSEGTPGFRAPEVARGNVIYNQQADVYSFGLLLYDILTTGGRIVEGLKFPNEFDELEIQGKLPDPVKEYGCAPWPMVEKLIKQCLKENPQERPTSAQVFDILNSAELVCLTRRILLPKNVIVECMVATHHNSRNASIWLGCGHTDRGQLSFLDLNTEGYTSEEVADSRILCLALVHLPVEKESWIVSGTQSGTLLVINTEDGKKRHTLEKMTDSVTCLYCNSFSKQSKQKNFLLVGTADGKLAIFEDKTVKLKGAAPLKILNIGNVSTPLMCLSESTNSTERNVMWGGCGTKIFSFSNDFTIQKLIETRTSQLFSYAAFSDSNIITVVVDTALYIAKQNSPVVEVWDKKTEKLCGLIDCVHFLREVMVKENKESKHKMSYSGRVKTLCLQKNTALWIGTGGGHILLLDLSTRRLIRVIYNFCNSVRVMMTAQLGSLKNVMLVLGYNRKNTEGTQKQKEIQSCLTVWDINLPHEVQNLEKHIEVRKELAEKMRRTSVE
T1 sequence (Q5S007 whole entry): as the sequence (Q5S007 whole entry G2019S) above, with S2019G counted along it

The Dmax is the largest share of the target that was removed. A word on the DC50: it is the concentration at which degradation of the target reaches its halfway point. For `CC(C)Oc1ccc2[nH]nc(-c3cc(N4CCN(CCN5CCC(CN6CCN(c7ccc8c(c7)CN(C7CCC(=O)NC7=O)C8=O)CC6)CC5)[C@@H](C)C4)ncn3)c2c1` (stereo partly drawn) [compound 31, 3-(5-{4-[(1-{2-[(2S)-2-methyl-4-{6-[5-(propan-2-yloxy)-1H-indazol-3-yl]pyrimidin-4-yl}piperazin-1-yl]ethyl}piperidin-4-yl)methyl]piperazin-1-yl}-1-oxo-2,3-dihydro-1H-isoindol-2-yl)piperidine-2,6-dione], the Dmax at wildtype LRRK2 and at G2019S LRRK2 was at least 70% in each case. Also, the DC50 on wildtype LRRK2 is below 10 nM; at G2019S LRRK2 it was 10 to 50 nM.

As for `CC(C)Oc1ccc2[nH]nc(-c3cc(N4CCO[C@@H](CN5CCN(CC6CCN(c7ccc8c(c7)C(=O)N(C7CCC(=O)NC7=O)C8=O)CC6)CC5)C4)ncn3)c2c1` (stereo partly drawn) [compound 47, 2-(2,6-dioxopiperidin-3-yl)-5-(4-((4-(((S)-4-(6-(5-isopropoxy-1H-indazol-3-yl)pyrimidin-4-yl)morpholin-2-yl)methyl)piperazin-1-yl)methyl)piperidin-1-yl)isoindoline-1,3-dione], at wildtype LRRK2, the Dmax was in the range of 50 to 70% and the DC50 was below 10 nM. On G2019S LRRK2, this molecule came in with a DC50 of 10 to 50 nM and a Dmax of 50 to 70%.

Turning to `CC1(Oc2ccc3[nH]nc(-c4cc(N5CCO[C@H](CCOCCOCCOCCOc6ccc7c(c6)C(=O)N(C6CCC(=O)NC6=O)C7=O)C5)ncn4)c3c2)CC1` (stereo in doubt) [compound 17, 2-(2,6-dioxopiperidin-3-yl)-5-(2-(2-(2-(2-(4-(6-(5-(1-methylcyclopropoxy)-1H-indazol-3-yl)pyrimidin-4-yl)morpholin-2-yl)ethoxy)ethoxy)ethoxy)ethoxy)isoindoline-1,3-dione], at wildtype LRRK2, the Dmax is at least 70% and the DC50 lay within 10 to 50 nM. Besides, on G2019S LRRK2, the DC50 lay in the range of 50 to 100 nM and the Dmax was at least 70%.

Regarding `CC(C)Oc1ccc2[nH]nc(-c3cc(N4CCN(CC[C@@H]5CCN(CC6CCN(c7ccc8c(c7)C(=O)N(C7CCC(=O)NC7=O)C8=O)CC6)C5)CC4)ncn3)c2c1` (stereo partly drawn) [compound 43, 2-(2,6-dioxopiperidin-3-yl)-5-(4-(((S)-3-(2-(4-(6-(5-isopropoxy-1H-indazol-3-yl)pyrimidin-4-yl)piperazin-1-yl)ethyl)pyrrolidin-1-yl)methyl)piperidin-1-yl)isoindoline-1,3-dione], the Dmax is at least 70% at wildtype LRRK2 and 50 to 70% at G2019S LRRK2. The DC50 on wildtype LRRK2 and on G2019S LRRK2 was 10 to 50 nM throughout.

Take `CC(C)Oc1ccc2[nH]nc(-c3cc(N4CCN(CCN5CC(C6CCN(c7ccc8c(c7)C(=O)N(C7CCC(=O)NC7=O)C8=O)CC6)C5)CC4)ncn3)c2c1` (stereo not drawn) [compound 44, 2-(2,6-dioxopiperidin-3-yl)-5-(4-(1-(2-(4-(6-(5-isopropoxy-1H-indazol-3-yl)pyrimidin-4-yl)piperazin-1-yl)ethyl)azetidin-3-yl)piperidin-1-yl)isoindoline-1,3-dione]: at wildtype LRRK2, the greatest degradation seen (Dmax) lay in the range of 50 to 70% and the DC50 fell in the range of 10 to 50 nM. Further, at G2019S LRRK2, the DC50 was in the range of 10 to 50 nM and the greatest degradation seen (Dmax) fell in the range of 50 to 70%.

Turning to `CC(C)Oc1ccc2[nH]nc(-c3cc(N4CCN(CCOCCC#CCN5CCN(c6ccc7c(c6)C(=O)N(C6CCC(=O)NC6=O)C7=O)CC5)[C@@H](C)C4)ncn3)c2c1` (stereo partly drawn) [compound 34, 2-(2,6-dioxopiperidin-3-yl)-5-[4-(5-{2-[(2S)-2-methyl-4-{6-[5-(propan-2-yloxy)-1H-indazol-3-yl]pyrimidin-4-yl}piperazin-1-yl]ethoxy}pent-2-yn-1-yl)piperazin-1-yl]-2,3-dihydro-1H-isoindole-1,3-dione], the values for the Dmax on wildtype LRRK2 and on G2019S LRRK2 were at least 70% and 50 to 70%, respectively. Also, the results for the DC50 at wildtype LRRK2 and on G2019S LRRK2 were 50 to 100 nM and at least 100 nM, respectively.

With `C[C@H]1CN(c2cc(-c3n[nH]c4ccc(OC5(C)CC5)cc34)ncn2)CCN1CCOCCOCCOCCOc1ccc2c(c1)C(=O)N(C1(C)CCC(=O)NC1=O)C2=O` (stereo partly drawn) [compound 19, 2-(3-methyl-2,6-dioxopiperidin-3-yl)-5-{2-[2-(2-{2-[(2S)-2-methyl-4-{6-[5-(1-methylcyclopropoxy)-1H-indazol-3-yl]pyrimidin-4-yl}piperazin-1-yl]ethoxy}ethoxy)ethoxy]ethoxy}-2,3-dihydro-1H-isoindole-1,3-dione], on wildtype LRRK2, the Dmax was below 50% and the DC50 was at least 100 nM. In addition, on G2019S LRRK2, the DC50 fell in the range of 10 to 50 nM and the Dmax was below 50%.

`CC(C)Oc1ccc2[nH]nc(-c3cc(N4CCN(CCN5CCC(CC6CCN(c7ccc8c(c7)C(=O)N(C7CCC(=O)NC7=O)C8=O)CC6)CC5)CC4)ncn3)c2c1` (stereo not drawn) [compound 51, 2-(2,6-dioxopiperidin-3-yl)-5-(4-((1-(2-(4-(6-(5-isopropoxy-1H-indazol-3-yl)pyrimidin-4-yl)piperazin-1-yl)ethyl)piperidin-4-yl)methyl)piperidin-1-yl)isoindoline-1,3-dione]: at wildtype LRRK2, the Dmax is 50 to 70% and the DC50 is 10 to 50 nM. Moreover, on G2019S LRRK2, the DC50 lay within 10 to 50 nM and the Dmax was 50 to 70%.

As to `C[C@H]1CN(c2cc(-c3n[nH]c4ccc(OC5(C)CC5)cc34)ncn2)CCN1CCOCCOCCOCCOc1ccc(C(=O)NC2CCC(=O)NC2=O)c(F)c1` (stereo partly drawn) [compound 13, N-(2,6-dioxopiperidin-3-yl)-2-fluoro-4-{2-[2-(2-{2-[(2S)-2-methyl-4-{6-[5-(1-methylcyclopropoxy)-1H-indazol-3-yl]pyrimidin-4-yl}piperazin-1-yl]ethoxy}ethoxy)ethoxy]ethoxy}benzamide], at wildtype LRRK2, the Dmax is below 50% and the DC50 is 10 to 50 nM. On G2019S LRRK2, this molecule had a DC50 of 10 to 50 nM and a Dmax below 50%.

Consider `CC(C)Oc1ccc2[nH]nc(-c3cc(N4CCN(CCOCCN5CCN(c6ccc7c(c6)C(=O)N(C6CCC(=O)NC6=O)C7=O)CC5)[C@@H](C)C4)ncn3)c2c1` (stereo partly drawn) [compound 22, 2-(2,6-dioxo-3-piperidyl)-5-[4-[2-[2-[(2S)-4-[6-(5-isopropoxy-1H-indazol-3-yl)pyrimidin-4-yl]-2-methyl-piperazin-1-yl]ethoxy]ethyl]piperazin-1-yl]isoindoline-1,3-dione], for which, at wildtype LRRK2, the greatest degradation seen (Dmax) was below 50% and the DC50 was 10 to 50 nM. On G2019S LRRK2, this molecule had a DC50 of 10 to 50 nM and a Dmax below 50%.

Consider `CC(C)Oc1ccc2[nH]nc(-c3cc(N4CCN(CCOCCOCCOc5ccc6c(c5)C(=O)N(C5CCC(=O)NC5=O)C6=O)[C@@H](C)C4)ncn3)c2c1` (stereo partly drawn) [compound 8, 2-(2,6-dioxopiperidin-3-yl)-5-[2-(2-{2-[(2S)-2-methyl-4-{6-[5-(propan-2-yloxy)-1H-indazol-3-yl]pyrimidin-4-yl}piperazin-1-yl]ethoxy}ethoxy)ethoxy]-2,3-dihydro-1H-isoindole-1,3-dione], for which the Dmax at wildtype LRRK2 and at G2019S LRRK2 was below 50% in each case. Moreover, the DC50 on wildtype LRRK2 and on G2019S LRRK2 was at least 100 nM in each case.

As to `C[C@H]1CN(c2cc(-c3n[nH]c4ccc(OC5(C)CC5)cc34)ncn2)CCN1CCOCCOCCOc1ccc2c(c1)C(=O)N(C1CCC(=O)NC1=O)C2=O` (stereo partly drawn) [compound 3, 2-(2,6-dioxopiperidin-3-yl)-5-[2-(2-{2-[(2S)-2-methyl-4-{6-[5-(1-methylcyclopropoxy)-1H-indazol-3-yl]pyrimidin-4-yl}piperazin-1-yl]ethoxy}ethoxy)ethoxy]-2,3-dihydro-1H-isoindole-1,3-dione], the Dmax on wildtype LRRK2 was at least 70%; on G2019S LRRK2 it was 50 to 70%. Also, the results for the DC50 on wildtype LRRK2 and on G2019S LRRK2 were below 10 nM and 10 to 50 nM, respectively.
